Our source for the EC50, Activity and pKa values is ChEMBL document CHEMBL2321790, “1,4,2-Benzo/pyridodithiazine 1,1-dioxides structurally related to the ATP-sensitive potassium channel openers 1,2,4-Benzo/pyridothiadiazine 1,1-dioxides exert a myorelaxant activity linked to a distinct mechanism of action” (J Med Chem, 2013).

Data set [1] is described as follows: Activation of ATP-sensitive potassium channel opening in albino rat aorta rings assessed as relaxation of KCl-induced contraction of aorta rings. The data set is classed as tissue-based.
The species named for data set [2] is Rattus norvegicus. Briefly: Activation of ATP-sensitive potassium channel opening in albino rat pancreatic islets assessed as inhibition of glucose-induced insulin release measured as residual insulin release at 10 uM after 90 mins by radioimmunoassay.
For data set [3], the system named is Aorta. Briefly: Myorelaxant activity in albino rat aorta rings assessed as relaxation of 30 mM KCl-induced contraction of aorta rings. Type of data set: functional, tissue-based.
For data set [4], the system named is Aorta. Kind of data set: Myorelaxant activity in albino rat aorta rings assessed as relaxation of 80 mM KCl-induced contraction of aorta rings. Type of data set: functional, tissue-based.
For data set [5], the system named is Aorta. Briefly: Myorelaxant activity in albino rat aorta rings assessed as relaxation of KCl-induced contraction of aorta rings in presence of 10 uM KATP channel blocker glibenclamide. The data set is classed as functional, tissue-based.
Data set [6] concerns Aorta. Kind of data set: Myorelaxant activity in albino rat aorta rings assessed as relaxation of KCl-induced contraction of aorta rings in presence of 1 uM KATP channel blocker glibenclamide. The data set is classed as functional, tissue-based.
The nature of data set [7]: Dissociation constant, pKa of the compound in water at 25 degC. Type of data set: physicochemical.
Data set [8] concerns Aorta. Kind of data set: Myorelaxant activity in albino rat aorta rings assessed as relaxation of KCl-induced contraction of aorta rings. Type of data set: functional, tissue-based.

A value given as a limit tells only on which side of the number the result lay.

As for `CC(NC1=NS(=O)(=O)c2cc(S(C)(=O)=O)ccc2S1)c1ccccc1` (configuration not stated), in data set [1], the EC50 (in general, the concentration needed to bring the measured effect to its halfway point) is above 30 µM. The Activity in data set [2] is 83.4%.
As for `CC(C)NC1=NS(=O)(=O)c2cc(Cl)ccc2N1`, in data set [1], the EC50 was determined as 31.8 µM. The Activity in data set [2] came to 4.8%.
Turning to `CC(C)NC1=NS(=O)(=O)c2c[n+]([O-])ccc2S1`, the 50% effective concentration (EC50) in data set [1] is above 200 µM. Further, the Activity in data set [2] stood at 76.7%.
Turning to `CC(C)NC1=NS(=O)(=O)c2cc(S(C)(=O)=O)ccc2S1`, in data set [1], the EC50 is above 200 µM. The Activity in data set [2] was determined as 76.3%.
As to `CC(SC1=NS(=O)(=O)c2cc(F)ccc2N1)c1ccccc1` (racemic), the EC50 in data set [3] is 13.2 µM; in data set [4] it was 27.5 µM; in data set [5] (read-out: EC50) it was 36.2 µM; in data set [6], 33.3 µM.
Consider `CC1=Nc2ccc(Cl)cc2S(=O)(=O)N1` [DIAZOXIDE], for which the EC50 was 23.8 µM in data set [3]; above 300 µM in data set [4]; 26.2 µM in data set [1]; 280 µM in data set [5] (read-out: EC50); 154 µM in data set [6]. Moreover, in data set [2], the Activity is 73.9%.
As to `O=[N+]([O-])c1ccc2c(c1)S(=O)(=O)N=C(NC1CC1)S2`, the EC50 in data set [1] was above 200 µM. In data set [2], the Activity turned out to be 88.2%.
For `CC(NC1=NS(=O)(=O)c2cc(C(F)(F)F)ccc2S1)c1ccccc1` (racemic) [listing 1 of 2 here], the 50% effective concentration (EC50) is 16.2 µM in data set [3]; 14.9 µM in data set [4]; 11.6 µM in data set [1]; 15.5 µM in data set [5] (read-out: EC50); 17.3 µM in data set [6].
For `CC(C)NC1=NS(=O)(=O)c2cccc(Cl)c2S1`, the half-maximal effective concentration (EC50) in data set [1] is above 30 µM. Besides, the Activity in data set [2] came to 82.4%.
On to `CS(=O)(=O)c1ccc2c(c1)S(=O)(=O)N=C(Nc1ccccc1)S2`, for which the EC50 in data set [1] is above 30 µM. For the same molecule, the Activity in data set [2] stood at 92.4%.
Take `CC(NC1=NS(=O)(=O)c2cc([N+](=O)[O-])ccc2S1)c1ccccc1` (configuration not stated): the EC50 in data set [1] was found to be 15.9 µM. Besides, the Activity in data set [2] came to 91.5%.
With `CCC(C)NC1=NS(=O)(=O)c2cc([N+](=O)[O-])ccc2S1` (configuration not stated), in data set [1], the EC50 turned out to be 59.9 µM. Moreover, the Activity in data set [2] worked out at 110%.
As for `CC(C)NC1=NS(=O)(=O)c2cc(Cl)ccc2S1`, the pKa (in general, the negative logarithm of the acid dissociation constant) in data set [7] came out at 9.76. For the same molecule, in data set [1], the EC50 is above 100 µM. Further, the Activity in data set [2] is 92.2%.
For the molecule `CC(C)NC1=NS(=O)(=O)c2cc(C#N)ccc2S1`, the EC50 in data set [1] was found to be 152 µM. Further, the Activity in data set [2] was found to be 86.2%.
As for `O=[N+]([O-])c1ccc2c(c1)S(=O)(=O)N=C(NC1CCCC1)S2`, the EC50 in data set [1] turned out to be 42.6 µM. In addition, in data set [2], the Activity turned out to be 100%.
As to `CC(C)NC1=NS(=O)(=O)c2cnccc2S1`, the EC50 in data set [1] was 190 µM. Moreover, the Activity in data set [2] turned out to be 90.6%.
Regarding `CC(C)CNC1=NS(=O)(=O)c2cc([N+](=O)[O-])ccc2S1`, in data set [1], the EC50 came to 69.1 µM. Moreover, the Activity in data set [2] was found to be 110%.
`CC(SC1=NS(=O)(=O)c2ccc(Cl)cc2N1)c1ccccc1` (configuration not stated): the EC50 in data set [1] was 5.7 µM. Besides, the Activity in data set [2] is 76.3%.
Regarding `CC(SC1=NS(=O)(=O)c2cc(F)ccc2N1)c1ccccc1` (configuration not stated) [listing 1 of 2 here], the Activity in data set [2] was found to be 95.5%.
In the case of `CC(SC1=NS(=O)(=O)c2cccc(Cl)c2N1)c1ccccc1` (configuration not stated), the half-maximal effective concentration (EC50) in data set [1] was above 30 µM. Further, the Activity in data set [2] amounted to 79.2%.
Turning to `CC(C)NC1=NS(=O)(=O)c2ccc(Cl)cc2S1`, the EC50 in data set [1] was above 30 µM. In data set [2], the Activity was determined as 78.9%.
As to `O=[N+]([O-])c1ccc2c(c1)S(=O)(=O)N=C(NCc1ccccc1)S2`, the EC50 in data set [1] is above 30 µM. Also, the Activity in data set [2] amounted to 77.7%.
Consider `O=[N+]([O-])c1ccc2c(c1)S(=O)(=O)N=C(NCC1CC1)S2`, for which the concentration for a half-maximal effect (EC50) in data set [1] is 61.1 µM. Further, in data set [2], the Activity came out at 90.2%.
With `CC(SC1=NS(=O)(=O)c2cc(Cl)ccc2N1)c1ccccc1` (configuration not stated), in data set [1], the EC50 is 5.4 µM. Further, the Activity in data set [2] was found to be 71.1%.
For the molecule `O=S1(=O)N=C(NC2CCCC2)Sc2ccc(C(F)(F)F)cc21`, the concentration giving a half-maximal response (EC50) in data set [1] was 48.7 µM. Further, the Activity in data set [2] turned out to be 89.5%.
In the case of `CC(SC1=NS(=O)(=O)c2cc(I)ccc2N1)c1ccccc1` (configuration not stated), the half-maximal effective concentration (EC50) in data set [1] stood at 5.4 µM. In addition, the Activity in data set [2] was found to be 81.4%.
Regarding `CCNC1=NS(=O)(=O)c2cc([N+](=O)[O-])ccc2S1`, in data set [1], the EC50 was above 30 µM. Also, in data set [2], the Activity turned out to be 100%.
The like results for `CC(C)NC1=NS(=O)(=O)c2cc([N+](=O)[O-])ccc2S1` were, in that order, 176 µM and 97.7%.
As for `CC(C)NC1=NS(=O)(=O)c2cc(C(F)(F)F)ccc2S1`, in data set [1], the EC50 is 53.7 µM. Also, in data set [2], the Activity stood at 108%.
On to `O=[N+]([O-])c1ccc2c(c1)S(=O)(=O)N=C(Nc1ccccc1)S2`, for which the EC50 in data set [1] is above 200 µM. Further, in data set [2], the Activity came to 89.5%.
`CC(SC1=NS(=O)(=O)c2cc(Br)ccc2N1)c1ccccc1` (configuration not stated): the EC50 in data set [1] was 11.9 µM. The Activity in data set [2] was determined as 91.7%.
In the case of `CCC(C)NC1=NS(=O)(=O)c2cc(C(F)(F)F)ccc2S1` (configuration not stated), the EC50 in data set [1] worked out at 38.8 µM. For the same molecule, the Activity in data set [2] turned out to be 110%.
Consider `CC(NC1=NS(=O)(=O)c2cc(C(F)(F)F)ccc2S1)c1ccccc1` (racemic) [listing 2 of 2 here], for which the Activity in data set [2] was determined as 97%.
Regarding `CC(SC1=NS(=O)(=O)c2cc(F)ccc2N1)c1ccccc1` (configuration not stated) [listing 2 of 2 here], the EC50 in data set [1] turned out to be 15 µM.
Turning to `CC(C)NC1=NS(=O)(=O)c2cc(C(=O)O)ccc2S1`, the EC50 in data set [1] was above 200 µM. Besides, in data set [2], the Activity was 68.5%.
For the molecule `O=S1(=O)N=C(Nc2ccccc2)Sc2ccc(C(F)(F)F)cc21`, the EC50 in data set [1] was found to be 13.7 µM. The Activity in data set [2] stood at 67.8%.
Turning to `COc1ccc(CCN(C)CCCC(C#N)(c2ccc(OC)c(OC)c2)C(C)C)cc1OC` (configuration not stated) [VERAPAMIL], the EC50 in data set [3] came out at 0.031 µM; in data set [4], 0.052 µM; in data set [5], 0.35 µM; in data set [6], 0.038 µM. The Activity result in data set [8] was “Dose-dependent effect”.
On to `C[C@H](NC1=NS(=O)(=O)c2cc(C(F)(F)F)ccc2S1)c1ccccc1`, for which, in data set [1], the EC50 is 11.3 µM.
Turning to `C[C@@H](NC1=NS(=O)(=O)c2cc(C(F)(F)F)ccc2S1)c1ccccc1`, the EC50 in data set [1] is above 30 µM.
For `CC(NC1=NS(=O)(=O)c2cc(C(F)(F)F)ccc2S1)c1ccccc1` (stereo in doubt; 6t), the Activity in data set [2] is 97%.
